Series [1] addresses T1, Dual specificity tyrosine-phosphorylation-regulated kinase 1A (Rattus norvegicus, UniProt Q63470). Kind of series: Inhibition of rat recombinant 6xHis-tagged DYRK1A catalytic domain (1 to 502) expressed in Escherichia coli BL21 (DE3) using N-terminal fluorescein coupled KISGRLSPIMTEQ as substrate after 30 mins by HPLC analysis in presence of 50 uM ATP.
Series [2] addresses T2, Dual specificity tyrosine-phosphorylation-regulated kinase 1A (Homo sapiens, UniProt Q13627). Kind of series: Inhibition of DYRK1A (unknown origin) by HPLC analysis.
A short description of series [3]: Cytotoxicity against human KB cells assessed as growth inhibition at 10^-5 M after 72 hrs by resazurin dye-based fluorimetric analysis relative to control. The format is cell-based. As to conditions: read-out: GI. In general terms: Alamar Blue is a resazurin reagent that responds to reducing activity.
In series [4] the target is T1, Dual specificity tyrosine-phosphorylation-regulated kinase 1A. Kind of series: Competitive inhibition of rat recombinant 6xHis-tagged DYRK1A catalytic domain (1 to 502) expressed in Escherichia coli BL21 (DE3) using ATP as substrate by Michaelis-Menten plot analysis.
The target is the same in series [5]. As to the kind of experiment: Inhibition of rat recombinant 6xHis-tagged DYRK1A catalytic domain (1 to 502) expressed in Escherichia coli BL21 (DE3) using N-terminal fluorescein coupled KISGRLSPIMTEQ as substrate after 30 mins by HPLC analysis in presence of 1 mM ATP.
The target in series [6] is Serine/threonine-protein kinase pim-1 (Homo sapiens) (UniProt P11309). As to the kind of experiment: Inhibition of human Pim1 kinase at 5 x 10^-8 M.
Series [7] deals with High affinity nerve growth factor receptor (Homo sapiens) (UniProt P04629). As to the kind of experiment: Inhibition of human TRKA at 5 x 10^-8 M.
Series [8] is described as follows: Cytotoxicity against human KB cells assessed as growth inhibition at 10^-6 M after 72 hrs by resazurin dye-based fluorimetric analysis relative to control. It counts as cell-based. Particulars: read-out: GI.
For series [9], the target named is Glycogen synthase kinase-3 beta (Homo sapiens) (UniProt P49841). As to the kind of experiment: Inhibition of human GSK-3beta at 5 x 10^-8 M.
Series [10] addresses Mitogen-activated protein kinase 1 (Homo sapiens) (UniProt P28482). As to the kind of experiment: Inhibition of human ERK2 at 5 x 10^-8 M.
Series [11] deals with Casein kinase I isoform alpha (Homo sapiens) (UniProt P48729). Kind of series: Inhibition of human CK1alpha at 5 x 10^-8 M relative to control.
The target of series [12] is CDK2/Cyclin A2 (Homo sapiens) (UniProt P24941+P20248). As to the kind of experiment: Inhibition of human CDK2/cyclin A at 5 x 10^-8 M relative to control. The format is protein-complex assay.
Series [13] has as its target T3, Dual specificity tyrosine-phosphorylation-regulated kinase 3 (Homo sapiens) (UniProt O43781).
T3 sequence (whole entry): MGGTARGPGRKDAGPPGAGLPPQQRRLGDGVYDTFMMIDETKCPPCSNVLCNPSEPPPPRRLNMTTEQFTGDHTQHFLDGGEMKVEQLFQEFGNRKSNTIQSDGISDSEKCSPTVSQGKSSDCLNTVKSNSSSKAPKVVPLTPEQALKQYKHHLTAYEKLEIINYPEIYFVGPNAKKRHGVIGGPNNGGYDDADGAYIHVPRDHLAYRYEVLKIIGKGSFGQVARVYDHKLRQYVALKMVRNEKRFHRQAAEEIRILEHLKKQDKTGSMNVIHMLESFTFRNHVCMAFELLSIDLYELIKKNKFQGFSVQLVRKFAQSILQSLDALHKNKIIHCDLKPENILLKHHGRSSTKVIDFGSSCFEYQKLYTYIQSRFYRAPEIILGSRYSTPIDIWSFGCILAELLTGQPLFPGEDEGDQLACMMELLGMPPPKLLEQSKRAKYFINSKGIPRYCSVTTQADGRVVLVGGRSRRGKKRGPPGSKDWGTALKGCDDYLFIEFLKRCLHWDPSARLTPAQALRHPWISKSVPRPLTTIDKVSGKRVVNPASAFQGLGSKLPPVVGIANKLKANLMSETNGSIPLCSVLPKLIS
Kind of series: Inhibition of human DYRK3 at 5 x 10^-8 M relative to control.

The target of series [14] is T4, Dual specificity tyrosine-phosphorylation-regulated kinase 2 (Homo sapiens) (UniProt Q92630).
T4 sequence (whole entry): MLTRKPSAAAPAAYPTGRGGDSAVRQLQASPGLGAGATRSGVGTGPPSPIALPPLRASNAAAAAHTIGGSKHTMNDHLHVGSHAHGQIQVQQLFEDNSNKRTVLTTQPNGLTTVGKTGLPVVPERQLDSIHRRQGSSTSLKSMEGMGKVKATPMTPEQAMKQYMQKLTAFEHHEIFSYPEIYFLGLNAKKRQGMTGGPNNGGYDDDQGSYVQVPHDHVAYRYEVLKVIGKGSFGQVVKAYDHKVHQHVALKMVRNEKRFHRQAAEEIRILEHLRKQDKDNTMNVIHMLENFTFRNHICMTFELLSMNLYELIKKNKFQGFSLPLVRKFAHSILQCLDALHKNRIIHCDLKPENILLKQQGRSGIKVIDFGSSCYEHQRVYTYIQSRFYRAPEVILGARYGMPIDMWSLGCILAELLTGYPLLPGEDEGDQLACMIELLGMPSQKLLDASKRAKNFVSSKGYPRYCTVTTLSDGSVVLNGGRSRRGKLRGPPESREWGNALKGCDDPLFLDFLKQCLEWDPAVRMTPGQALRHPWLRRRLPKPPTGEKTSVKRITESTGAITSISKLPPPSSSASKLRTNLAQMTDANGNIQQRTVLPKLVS
As to the kind of experiment: Inhibition of human DYRK2 at 5 x 10^-8 M relative to control.

Series [15] deals with RAC-alpha serine/threonine-protein kinase (Homo sapiens) (UniProt P31749). As to the kind of experiment: Inhibition of human AKT1 at 5 x 10^-8 M.
Series [16] addresses T2, Dual specificity tyrosine-phosphorylation-regulated kinase 1A. Kind of series: Inhibition of human GST-fused DYRK1A expressed in Escherichia coli using KISGRLSPIMTEQ as substrate.

Activity calls are given as the source filed them. The calls are words filed in the database; no cut-off is given here. Some results are limits rather than exact numbers.

Chain of Mitogen-activated protein kinase 1 (Homo sapiens) (P28482 whole entry, canonical isoform): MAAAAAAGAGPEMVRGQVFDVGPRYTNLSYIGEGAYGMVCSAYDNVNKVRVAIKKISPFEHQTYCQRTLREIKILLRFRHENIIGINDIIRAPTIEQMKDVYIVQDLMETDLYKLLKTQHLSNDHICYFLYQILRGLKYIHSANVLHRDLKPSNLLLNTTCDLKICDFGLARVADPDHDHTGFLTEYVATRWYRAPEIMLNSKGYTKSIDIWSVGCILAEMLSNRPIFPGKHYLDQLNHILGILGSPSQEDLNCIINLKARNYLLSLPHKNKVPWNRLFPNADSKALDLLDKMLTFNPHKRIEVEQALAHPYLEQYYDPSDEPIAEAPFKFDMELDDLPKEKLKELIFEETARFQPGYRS
Chain of Serine/threonine-protein kinase pim-1 (Homo sapiens) (P11309 whole entry, looked up): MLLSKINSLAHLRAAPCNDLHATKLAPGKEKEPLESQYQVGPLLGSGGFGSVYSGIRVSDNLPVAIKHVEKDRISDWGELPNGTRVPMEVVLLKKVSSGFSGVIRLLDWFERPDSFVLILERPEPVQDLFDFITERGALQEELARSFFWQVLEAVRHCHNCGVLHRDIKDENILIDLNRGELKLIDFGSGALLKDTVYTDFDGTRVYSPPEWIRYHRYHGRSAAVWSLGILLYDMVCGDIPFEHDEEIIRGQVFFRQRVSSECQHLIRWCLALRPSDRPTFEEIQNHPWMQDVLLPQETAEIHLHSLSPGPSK
Chain of High affinity nerve growth factor receptor (Homo sapiens) (P04629 33-796 limits assumed): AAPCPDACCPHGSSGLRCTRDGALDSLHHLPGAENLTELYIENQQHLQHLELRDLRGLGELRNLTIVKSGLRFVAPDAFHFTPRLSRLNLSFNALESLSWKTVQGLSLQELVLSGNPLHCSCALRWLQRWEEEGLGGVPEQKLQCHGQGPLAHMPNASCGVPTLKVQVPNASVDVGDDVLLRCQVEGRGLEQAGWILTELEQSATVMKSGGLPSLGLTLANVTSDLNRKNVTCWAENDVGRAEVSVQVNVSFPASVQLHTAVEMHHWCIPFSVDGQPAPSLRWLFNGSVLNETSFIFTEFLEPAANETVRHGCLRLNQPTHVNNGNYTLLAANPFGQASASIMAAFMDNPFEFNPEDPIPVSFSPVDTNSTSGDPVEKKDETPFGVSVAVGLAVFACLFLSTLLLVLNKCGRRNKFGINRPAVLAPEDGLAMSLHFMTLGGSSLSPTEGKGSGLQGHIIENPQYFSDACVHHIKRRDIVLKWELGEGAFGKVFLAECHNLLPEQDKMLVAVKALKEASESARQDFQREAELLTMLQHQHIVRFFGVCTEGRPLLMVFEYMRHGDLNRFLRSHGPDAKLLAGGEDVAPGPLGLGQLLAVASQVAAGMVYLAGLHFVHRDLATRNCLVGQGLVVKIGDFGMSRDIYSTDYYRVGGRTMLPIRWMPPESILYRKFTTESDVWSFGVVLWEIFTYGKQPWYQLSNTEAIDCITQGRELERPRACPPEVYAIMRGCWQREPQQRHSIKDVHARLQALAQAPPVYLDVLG
Chain of Glycogen synthase kinase-3 beta (Homo sapiens) (P49841 whole entry, looked up): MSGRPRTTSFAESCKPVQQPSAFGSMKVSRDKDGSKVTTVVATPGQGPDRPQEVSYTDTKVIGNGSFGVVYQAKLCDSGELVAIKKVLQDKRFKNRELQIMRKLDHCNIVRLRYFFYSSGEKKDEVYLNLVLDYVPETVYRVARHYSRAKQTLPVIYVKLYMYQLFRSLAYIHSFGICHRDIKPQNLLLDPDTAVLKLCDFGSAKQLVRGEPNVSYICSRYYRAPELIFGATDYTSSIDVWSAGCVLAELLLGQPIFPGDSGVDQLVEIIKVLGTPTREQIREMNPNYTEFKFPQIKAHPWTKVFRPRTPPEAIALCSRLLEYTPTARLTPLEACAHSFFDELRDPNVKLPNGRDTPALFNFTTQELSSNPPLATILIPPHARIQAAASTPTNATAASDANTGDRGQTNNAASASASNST
Chain of Casein kinase I isoform alpha (Homo sapiens) (P48729 2-337 limits assumed): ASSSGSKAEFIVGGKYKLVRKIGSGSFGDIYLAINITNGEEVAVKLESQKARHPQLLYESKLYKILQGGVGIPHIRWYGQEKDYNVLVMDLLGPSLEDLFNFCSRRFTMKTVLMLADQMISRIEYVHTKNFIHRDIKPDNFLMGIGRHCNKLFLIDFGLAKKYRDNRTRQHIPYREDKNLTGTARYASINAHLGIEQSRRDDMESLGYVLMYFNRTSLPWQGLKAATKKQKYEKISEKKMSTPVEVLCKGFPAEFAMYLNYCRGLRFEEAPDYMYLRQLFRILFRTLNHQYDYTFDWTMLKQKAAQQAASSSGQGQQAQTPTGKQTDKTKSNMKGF
Chain of RAC-alpha serine/threonine-protein kinase (Homo sapiens) (P31749 whole entry, the tested form may be a part): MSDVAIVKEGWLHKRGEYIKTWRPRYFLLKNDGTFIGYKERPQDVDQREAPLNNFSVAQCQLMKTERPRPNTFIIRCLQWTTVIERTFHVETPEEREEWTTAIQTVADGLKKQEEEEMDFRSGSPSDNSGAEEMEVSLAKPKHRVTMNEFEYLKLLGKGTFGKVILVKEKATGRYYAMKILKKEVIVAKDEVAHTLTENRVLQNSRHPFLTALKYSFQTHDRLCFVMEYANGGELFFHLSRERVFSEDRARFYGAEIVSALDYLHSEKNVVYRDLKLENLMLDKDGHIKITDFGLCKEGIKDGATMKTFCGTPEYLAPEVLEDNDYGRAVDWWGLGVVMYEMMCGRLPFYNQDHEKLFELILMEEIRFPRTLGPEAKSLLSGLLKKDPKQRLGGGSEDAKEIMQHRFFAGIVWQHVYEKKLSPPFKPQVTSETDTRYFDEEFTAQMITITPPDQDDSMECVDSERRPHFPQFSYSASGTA

For orientation: IC50 means the concentration at which inhibition is half-maximal. As to `COc1ccc(-c2cnc3[nH]cc(-c4ccccc4)c3c2)c(OC)c1`, the IC50 in [1] was 1170 nM.
The same measure, in the same setting: in the case of `COc1ccc(-c2c[nH]c3ncc(-c4ccc(OC)cc4OC)cc23)cc1` it was 280 nM; in that of `COc1cccc(-c2cnc3[nH]cc(-c4cccc(OC)c4)c3c2)c1`, 14600 nM.
`Oc1ccc(-c2cc3c(-c4ccccc4)c[nH]c3cn2)cc1` came in with an IC50 in [2] of 27400 nM.
A word on the Ki: it is a measure of affinity in units of concentration, obtained from inhibition or displacement. Consider `Oc1ccc(-c2cnc3[nH]cc(-c4ccc(O)cc4)c3c2)cc1`, for which the inhibition at 72 h, 10 µM in series [3] amounted to 95%. The Ki in [4] came out at 2.3 nM. The IC50 was determined as 43 nM in series [5] and 23.1 nM in series [1]. Besides, the inhibition entry in series [6], in series [7], in series [9] and in series [10] was “inactive” each time. Moreover, in series [8], the inhibition at 72 h, 1 µM stood at 51%.
Regarding `COc1ccc(-c2cnc3[nH]cc(-c4ccccc4)c3c2)cc1OC`, the IC50 in [1] worked out at 3080 nM.
Take `Oc1ccc(O)c(-c2cnc3[nH]cc(-c4ccc(O)c(O)c4)c3c2)c1`: in [4], the Ki turned out to be 12.1 nM. Moreover, the IC50 in [1] came out at 39.1 nM.
`Oc1ccc(-c2cnc3[nH]cc(-c4ccccc4)c3c2)cc1`: the IC50 in series [1] was 330 nM.
With `Oc1ccc(-c2c[nH]c3ncc(-c4ccc(O)cc4O)cc23)cc1`, in series [3], the inhibition at 72 h, 10 µM came out at 83%. Further, the Ki in [4] amounted to 5.5 nM. Also, the IC50 is 48 nM in series [5] and 11.7 nM in series [1]. For the same molecule, the inhibition entry in [6], in [7], in series [9] and in series [10] was “inactive” each time. Moreover, the inhibition at 72 h, 1 µM in series [8] was 21%. Besides, the inhibition in [11], in series [12], in series [13] and in series [14] was less than 50% in each case.
As for `Oc1cccc(-c2cnc3[nH]cc(-c4ccccc4)c3c2)c1`, the IC50 in [1] was determined as 2700 nM.
`Oc1ccccc1-c1cnc2[nH]cc(-c3ccccc3)c2c1`: the IC50 in [1] came to 3590 nM.
With `COc1ccc(-c2cnc3[nH]cc(-c4ccccc4)c3c2)cc1`, in [1], the IC50 came out at 960 nM.
As to `COc1ccc(-c2cnc3[nH]cc(-c4ccc(OC)cc4)c3c2)cc1`, the IC50 in series [1] was determined as 1740 nM.
For the molecule `COc1ccc(OC)c(-c2cnc3[nH]cc(-c4ccc(OC)c(OC)c4)c3c2)c1`, in series [1], the IC50 was 1670 nM.
Take `Oc1ccc(-c2cnc3[nH]cc(-c4ccccc4)c3c2)cc1O`: in series [1], the IC50 amounted to 160 nM.
Regarding `Oc1ccc(-c2cnc3[nH]cc(-c4ccccc4)c3c2)c(O)c1`, the IC50 in series [1] amounted to 150 nM.
On to `c1ccc(-c2cnc3[nH]cc(-c4ccccc4)c3c2)cc1`, for which the IC50 in series [1] was determined as 410 nM.
`Oc1ccc(-c2cnc3[nH]cc(-c4ccc(O)c(O)c4)c3c2)c(O)c1`: the inhibition at 72 h, 10 µM in series [3] was determined as 9%. Moreover, the Ki in [4] was 7.6 nM. The inhibition at 72 h, 1 µM in [8] turned out to be 0%. In addition, the IC50 in series [1] was 14.3 nM.
Take `Oc1ccc(-c2cnc3[nH]cc(-c4ccc(O)c(O)c4)c3c2)cc1O`: in series [3], the inhibition at 72 h, 10 µM came to 11%. Also, the Ki in series [4] worked out at 10.1 nM. Besides, the IC50 was determined as 32 nM in series [5] and 12.4 nM in series [1]. Moreover, in [8], the inhibition at 72 h, 1 µM was determined as 2%. Moreover, in series [15], the inhibition entry is “Active”.
For `Oc1ccc(-c2c[nH]c3ncc(-c4ccc(O)c(O)c4)cc23)cc1`, the inhibition at 72 h, 10 µM in series [3] came to 86%. Also, the Ki in series [4] is less than 2 nM. Moreover, the IC50 in series [5] was found to be 5.5 nM; in series [1], 3 nM. Also, the inhibition entry in [6], in [7], in [9] and in [10] was “inactive” each time. In addition, the inhibition at 72 h, 1 µM in [8] stood at 56%.
Take `Oc1cccc(-c2cnc3[nH]cc(-c4cccc(O)c4)c3c2)c1`: in [1], the IC50 is 105 nM.
In series [16], `O=C(O[C@@H]1Cc2c(O)cc(O)cc2O[C@@H]1c1cc(O)c(O)c(O)c1)c1cc(O)c(O)c(O)c1` [EPIGALOCATECHIN GALLATE] displayed an IC50 of 330 nM.
As for `COc1ccc(-c2c[nH]c3ncc(-c4ccc(OC)c(OC)c4)cc23)cc1`, in [1], the IC50 is 460 nM.
As for `COc1ccc(-c2cnc3[nH]cc(-c4ccc(OC)c(OC)c4)c3c2)cc1OC`, the half-maximal inhibitory concentration (IC50) in series [1] was 57800 nM.
With `COc1ccc(-c2cnc3[nH]cc(-c4ccc(OC)c(OC)c4)c3c2)c(OC)c1`, the IC50 in series [1] stood at 2880 nM.
Regarding `COc1ccc(-c2cc3c(-c4ccccc4)c[nH]c3cn2)cc1`, in [2], half-maximal inhibition (IC50) was put at 17000 nM.
Consider `COc1ccccc1-c1cnc2[nH]cc(-c3ccccc3)c2c1`, for which the IC50 in series [1] was 960 nM.
For the molecule `COc1cccc(-c2cnc3[nH]cc(-c4ccccc4)c3c2)c1`, in [1], the concentration for half-maximal inhibition (IC50) amounted to 7490 nM.

The values above are taken from ChEMBL document CHEMBL3102826 (J Med Chem, 2013).
